In patent publication US20210393503A1, “ORGANIC COMPOUNDS” (GIVAUDAN SA, priority 2017, published 2021):
Where two headings read alike, the source gives them in different places.

Key:
[1] = tested on: Reconstituted Human Oral Epithelium (RHO); assay: Re-epithelization after injury by TEER (trans epithelial electrical resistance); assay type: cell-based; conditions: 24 h after treatment; RHO injured with glass capillary; vs control not treated after injury; FIG. 1
Method: Experiments were performed on Reconstituted Human Oral Epithelium (RHO).
(§1) Immediately after the arrival in the laboratory, the RHO was removed from the agarose nutrient solution under a sterile airflow cabin. The inserts were rapidly placed in a 6-well plate previously filled with 1 ml of the maintenance medium at room temperature. The wells were placed in an incubator at 37° C., 5% CO2 and saturated humidity overnight.
On the next day, an injury was performed with a glass capillary.
The RHO samples were then treated with a solution containing hyaluronic acid having low (20-50 kDa), intermediate (100-300 kDa) or high (1,000-1,400 kDa) molecular weight. Untreated RHO was used as a control without treatment.
(§2) The RHO samples for this assessment were prepared according to the procedure of example 1.
24 h after the treatment with hyaluronic acid, the trans epithelial electric resistance (TEER) was measured as follows:
0.5 ml of physiological saline solution was directly applied on the tissue placed in a 6-well plate containing 5 ml of saline solution as well. The two electrodes of a Millicell-ERS Voltohmmeter (range 0-20 kΩ) were placed were placed in two compartments on either side of the tissue, such that the electric flux passed through the tissue. The result of the measurement directly appeared on the display. […]

[2] = tested on: ZO-1; assay: Re-epithelization after injury by immunohistochemistry on ZO-1; assay type: cell-based, human; conditions: injured RHO, vs injured control; FIG. 7
Method: The RHO samples for this assessment were prepared according to the procedure of example 1. At the end of the exposures (at least overnight), the tissue samples were fixed in buffered 10% formalin. Samples were included in paraffin blocks and sections of 5 μm were prepared. These slides were stained with Haematoxilin and Eosin. The used technique allows for visualization of a specific protein or antigen in cells or tissue sections by binding a specific antibody chemically conjugated with a fluorescent dye. The indirect immunofluorescence staining is a procedure, in which a secondary antibody labelled with a fluorochrome is used to recognize a primary antibody. Immunofluorescence staining can be performed on cells fixed on slides and tissue sections. Immunofluorescence stained samples are examined under a fluorescence microscope or confocal microscope. […] ZO-1: Rabbit polyclonal antibody anti-ZO-1 (Invitrogen, 61-7300), diluted at 5 μg/ml for an overnight incubation at 4° C. in 1% bovine serum albumin (BSA) in PBS; and the secondary antibody in Alexa Fluor 555 donkey anti-rabbit (Invitrogen, A31572). The nuclei were stained with (4′,6-diamidino-2-phenylindole) (Dapi). The slices were examined under a Leica DM 2500 FLUO microscope and analyzed by Leica LAS software.

[3] = tested on: Integrin beta 1 (ITGB1); assay: Re-epithelization after injury by immunohistochemistry on Integrin B1; assay type: cell-based, human; conditions: injured RHO, vs injured control, FIG. 7
Method: as §2
At the end of the exposures (at least overnight), the tissue samples were fixed in buffered 10% formalin. Samples were included in paraffin blocks and sections of 5 μm were prepared. These slides were stained with Haematoxilin and Eosin.
The used technique allows for visualization of a specific protein or antigen in cells or tissue sections by binding a specific antibody chemically conjugated with a fluorescent dye. The indirect immunofluorescence staining is a procedure, in which a secondary antibody labelled with a fluorochrome is used to recognize a primary antibody. Immunofluorescence staining can be performed on cells fixed on slides and tissue sections. Immunofluorescence stained samples are examined under a fluorescence microscope or confocal microscope.
INTEGRIN (ITGB1): Mouse monoclonal antibody anti-Integrin beta 1 (Abcam, ab3167) diluted at 2 μg/ml for a 2 h incubation at room temperature in 1% BSA in PBS; and the secondary antibody in Alexa Fluor 488 goat anti-mouse (Invitrogen, A10680). The nuclei were stained with Dapi.
The slices were examined under a Leica DM 2500 FLUO microscope and analyzed by Leica LAS software.

[4] = tested on: Reconstituted Human Oral Epithelium (RHO); assay: Re-epithelization after injury by scanning electronic microscopy; assay type: cell-based; conditions: T24h after injury; for tissue repair / wound recovery seen by SEM: low 0.5%, intermediate 0.2%, high 0.2%, magnification 10000x, FIGS. 4-6; for film forming on the tissue surface: high molecular weight 0.2%, FIG. 6
Method: Experiments were performed on Reconstituted Human Oral Epithelium (RHO). Immediately after the arrival in the laboratory, the RHO was removed from the agarose nutrient solution under a sterile airflow cabin. The inserts were rapidly placed in a 6-well plate previously filled with 1 ml of the maintenance medium at room temperature. The wells were placed in an incubator at 37° C., 5% CO2 and saturated humidity overnight. On the next day, an injury was performed with a glass capillary. The RHO samples were then treated with a solution containing hyaluronic acid having low (20-50 kDa), intermediate (100-300 kDa) or high (1,000-1,400 kDa) molecular weight. Untreated RHO was used as a control without treatment. The RHO samples for this assessment were prepared according to the procedure of example 1. 24 h after treatment with hyaluronic acid, the samples for scanning electronic microscopy (SEM) were immediately fixed by immersion in 2.5% glutaraldehyde in phosphate buffered saline (PBS) for 24 h, washing in 0.1 M sodium cacodylate buffer, pH 7.4, and then carried out in 1% osmium tetraoxide (OsO4) in the same buffer (2 h at room temperature). The samples were dehydrated in ascending grades of ethanol at room temperature and Hexamethyldisilazane overnight. The samples were placed on pins with carbon tabs, coated with a layer of gold using a Polaron Equipment limited SEM coating unit […], and then transferred to a SEM Zeiss Sigma Electron Microscope for viewing and photography. Magnification of 10000× was performed.

[5] = tested on: Reconstituted Human Oral Epithelium (RHO) colonized with S. Aureus; assay: Biofilm formation by TEER on colonized RHO; assay type: cell-based
Method: as §1, with “medium […]” for “medium”
(§3) The protocol was performed on duplicate tissues for bacterial burden and on single tissue for further morphological analysis (SEM, H&E).
(§4) S. aureus MRSA ATCC 33591 was thawed and cultured in nutrient broth at 37° C., under agitation.
(§5) 30 μL of intermediate molecular weight hyaluronic acid solution (0.2% w/v) or of chlorhexidine (CHL) 0.2% (positive control), respectively, were topically applied to RHO samples, and incubated for 24 h. Then, the product residual volume was removed by a micropipette from the epithelium surface.
The RHO samples were then colonized with S. Aureus bacterial suspensions (O.D. 0.1 about 10^6 UFC/tissue), which was applied topically for 4 h. After 4 h, the remaining S. aureus solution was removed and RHO tissue samples were incubated for 16 h at 37° C., 5% CO2. […]
TEER was measured as described hereafter: 0.5 ml of physiological saline solution was directly applied on the tissue placed in a 6-well plate containing 5 ml of saline solution as well. […]

[6] = tested on: S. aureus MRSA ATCC 33591; assay: Biofilm visualization by scanning electronic microscopy; assay type: cell-based, Staphylococcus aureus; conditions: 100-300 kDa, 0.2% w/v, colonization with S. Aureus, after 4 h
Method: as §1, with “medium […]” for “medium”
as §3, §4, §5
(§6) The RHO samples were then colonized with S. Aureus bacterial suspensions (O.D. 0.1 about 10^6 UFC/tissue), which was applied topically for 4 h. After 4 h, the remaining S. aureus solution was removed and RHO tissue samples were incubated for 16 h at 37° C., 5% CO2.
The samples for this experiment were prepared according to the procedure of example 5.
After treatment, samples for SEM were immediately fixed by immersion in 2.5% gluteraldehyde in PBS. […]

[7] = tested on: S. aureus MRSA ATCC 33591; assay: Biofilm formation by bacterial count on colonized RHO; assay type: cell-based, Staphylococcus aureus
Method: as §1, with “medium […]” for “medium”
as §3, §4, §5, §6
The samples for this assessment were prepared according to the procedure of example 5.
In order to perform the bacterial count on apical, basolateral and homogenate compartments, the following procedure was used: • For the basolateral compartment: 1 ml of culture medium from each well was sampled. • For the apical compartment, the samples from the TEER measurement according to example 6 were used: Each sample contained 500 μl of physiological saline solution. These samples were moved to a new 6-well plate that had been previously filled with 2 ml/well of saline solution and put in a sonicator bath for 7 minutes at 40 kHz. After sonication, 500 μl of saline solution were sampled for the apical compartment and the RHO tissues were rinsed twice with 200 μl of saline solution. The total amount of solution (900 μl) was then pooled together to obtain the harvested apical compartment. • For the homogenate compartment: a sterile scalpel blade has been used to harvest tissues from the insert and to place them in an Eppendorf tube containing 500 μL of 0.5% Triton X-100 solution prepared in sterile distilled water for at least 10 minutes.
Bacterial counts of the three compartments were performed on Nutrient Agar plates, plating the appropriate 10-fold dilutions (from the not diluted to 10-7) of each compartment suspension (one 10 μl drop for each dilution). After 1 day of incubation at 37° C., the colonies were numbered visually.

hyaluronic acid [low molecular weight hyaluronic acid]
TEER (barrier function) after injury [1]: improved the barrier function after an injury
ZO-1 expression (immunofluorescence) [2]: induced an over-expression
Integrin beta 1 expression (immunofluorescence) [3]: induced an over-expression
tissue repair / wound recovery seen by SEM [4]: led to a recovery of the wound

hyaluronic acid [intermediate molecular weight hyaluronic acid]
TEER (barrier function) after injury [1]: improved the barrier function after an injury
TEER (barrier function) of colonized RHO [5]: did not affect TEER
polysaccharide matrix (biofilm formation) by SEM ([6]; FIG. 13): No polysaccharide matrix is visible
colonies in cluster by SEM ([6]; FIG. 13 vs FIG. 12): less colonies are in cluster
Integrin beta 1 expression (immunofluorescence) ([3]; listed as hyaluronic acid of intermediate molecular weight): over-expression of integrin beta 1 exclusively
decrease of the bacterial count, apical compartment ([7]; 0.2% w/v applied 24 h before colonization with S. Aureus, FIG. 9): about 50%
decrease of the bacterial count, homogenate compartment ([7]; 0.2% w/v applied 24 h before colonization with S. Aureus, FIG. 10): about 50%
total bacterial count (bacterial proliferation) ([7]; summary of examples 5-9): −50%
tissue repair / wound recovery seen by SEM [4]: active process of tissue repair

hyaluronic acid [high molecular weight hyaluronic acid]
film forming on the tissue surface [4]: film forming was observed
film forming on the tissue surface ([4]; listed as hyaluronic acid of high molecular weight): forming a film on the skin surface
tissue repair / wound recovery seen by SEM [4]: significantly less advanced

[H]/N=C(\N/C(=N/[H])NCCCCCCNC(=N)NC(=N)Nc1ccc(Cl)cc1)Nc1ccc(Cl)cc1 [CHL, chlorhexidine, reference compound]
TEER (barrier function) of colonized RHO ([5]; 0.2% applied 24 h before colonization with S. Aureus for 4 h, then 16 h incubation, FIG. 8): TEER decreased
bacterial count, result in words ([7]; 0.2% applied 24 h before colonization with S. Aureus, FIGS. 9 and 10): strong bactericidal property
